Measurements: PMC11435058, “Synthesis of New Thiazole-Privileged Chalcones as Tubulin Polymerization Inhibitors with Potential Anticancer Activities” (Pharmaceuticals, 2024)

Legend:
[1] = test system: OVCAR-3; experiment: cells; conditions: Homo sapiens
[2] = test system: SNB-75; experiment: NCI-60 anticancer screen (SRB; single dose and five doses); conditions: Homo sapiens, SNB-75, 48 h, read-out: Growth Percentage
[3] = test system: HCT-116; experiment: as above; conditions: Homo sapiens
[4] = test system: SK-MEL-28; experiment: as above; conditions: Homo sapiens
[5] = test system: SK-OV-3; experiment: as above; conditions: Homo sapiens
[6] = test system: UO-31; experiment: as above; conditions: Homo sapiens
[7] = test system: SF-539; experiment: as above; conditions: Homo sapiens
[8] = test system: OVCAR-4; experiment: as above; conditions: Homo sapiens
[9] = test system: NCI-H23; experiment: as above; conditions: Homo sapiens
[10] = test system: EKVX; experiment: as above; conditions: Homo sapiens
[11] = test system: SN12C; experiment: as above; conditions: Homo sapiens
[12] = test system: MDA-MB-468; experiment: as above; assay type: cell-based, human
Procedure, shortened: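 NCI panel of about 60 human tumor cell lines treated with compound at a single concentration (10μM) for 48 h. Growth measured by SRB protein staining and expressed as percent growth of treated versus untreated control cells.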

[13] = test system: OVCAR-8; experiment: as above; conditions: Homo sapiens
[14] = test system: TK-10; experiment: as above; conditions: Homo sapiens
[15] = test system: SNB-19; experiment: cells; conditions: Homo sapiens
[16] = test system: 786-0; experiment: NCI-60 anticancer screen (SRB; single dose and five doses); conditions: Homo sapiens
[17] = test system: MDA-MB-435; experiment: as above; conditions: Homo sapiens
[18] = test system: U251; experiment: as above; conditions: Homo sapiens
[19] = test system: SW-620; experiment: as above; conditions: Homo sapiens
[20] = test system: ACHN; experiment: as above; conditions: Homo sapiens
[21] = test system: HCC-2998; experiment: as above
[22] = test system: NCI-H460; experiment: as above; conditions: Homo sapiens
[23] = test system: M14; experiment: as above; conditions: Homo sapiens
[24] = test system: NCI-H522; experiment: as above; conditions: Homo sapiens
[25] = test system: A498; experiment: as above; conditions: Homo sapiens
[26] = 48 h, read-out: Growth Percentage

Compound: Cc1[nH]c(=S)sc1C(=O)/C=C/c1ccc(Br)cc1 [2g, (E)-3-(4-Bromophenyl)-1-(4-Methyl-2-Thioxo-2,3-Dihydrothiazol-5-yl)Prop-2-En-1-One]
- GI50 ([1]; OVCAR-3): 1.88 µM
- activity at 10 µM ([1]; OVCAR-3, 48 h, read-out: Growth Percentage): -12.3%
- CC50 ([1]; OVCAR-3, read-out: LC50): 9.7 µM
- IC (TGI) ([1]; OVCAR-3, read-out: TGI): 4.27 µM
- activity at 10 µM [2]: 2.52%
- GI50 ([3]; HCT-116): 3.82 µM
- activity at 10 µM ([3]; HCT-116, 48 h, read-out: Growth Percentage): 16.6%
- CC50 ([3]; HCT-116, read-out: LC50): 40.9 µM
- IC (TGI) ([3]; HCT-116, read-out: TGI): 13.1 µM
- GI50 ([4]; SK-MEL-28): 11.9 µM
- activity at 10 µM ([4]; SK-MEL-28, 48 h, read-out: Growth Percentage): 64.2%
- CC50 ([4]; SK-MEL-28, read-out: LC50): 50.2 µM
- IC (TGI) ([4]; SK-MEL-28, read-out: TGI): 24.5 µM
- GI50 ([5]; SK-OV-3): 13.8 µM
- activity at 10 µM ([5]; SK-OV-3, 48 h, read-out: Growth Percentage): 96.7%
- CC50 ([5]; SK-OV-3, read-out: LC50): 74.9 µM
- IC (TGI) ([5]; SK-OV-3, read-out: TGI): 32.2 µM
- GI50 ([6]; UO-31): 2.46 µM
- activity at 10 µM ([6]; UO-31, 48 h, read-out: Growth Percentage): 22.4%
- IC (TGI) ([6]; UO-31, read-out: TGI): 13.5 µM
- GI50 ([7]; SF-539): 2 µM
- activity at 10 µM ([7]; SF-539, 48 h, read-out: Growth Percentage): -25.3%
- IC (TGI) ([7]; SF-539, read-out: TGI): 4.67 µM
- GI50 ([8]; OVCAR-4): 10.7 µM
- activity at 10 µM ([8]; OVCAR-4, 48 h, read-out: Growth Percentage): 49.5%
- CC50 ([8]; OVCAR-4, read-out: LC50): 48.5 µM
- IC (TGI) ([8]; OVCAR-4, read-out: TGI): 22.8 µM
- GI50 ([9]; NCI-H23): 8.23 µM
- activity at 10 µM ([9]; NCI-H23, 48 h, read-out: Growth Percentage): 65%
- CC50 ([9]; NCI-H23, read-out: LC50): 48 µM
- IC (TGI) ([9]; NCI-H23, read-out: TGI): 21.3 µM
- GI50 [10]: 10.6 µM
- activity at 10 µM [10, 26]: 62.9%
- CC50 ([10]; read-out: LC50): 51 µM
- IC (TGI) ([10]; read-out: TGI): 23.3 µM
- GI50 [11]: 3.15 µM
- activity at 10 µM [11, 26]: 19.2%
- CC50 ([11]; read-out: LC50): 36.8 µM
- IC (TGI) ([11]; read-out: TGI): 13.1 µM
- activity at 10 µM ([12]; Homo sapiens, 48 h, MDA-MB-468, dose of 10 μM, read-out: Growth Percentage): -4.75%
- GI50 ([12]; Homo sapiens, MDA-MB-468, Breast Cancer, five dose): 1.79 µM
- CC50 ([12]; Homo sapiens, MDA-MB-468, Breast Cancer, five dose, read-out: LC50 (the source's name)): 27.2 µM
- TGI ([12]; MDA-MB-468, Breast Cancer, five dose): 6.77 µM
- GI50 ([13]; OVCAR-8): 2.86 µM
- activity at 10 µM ([13]; OVCAR-8, 48 h, read-out: Growth Percentage): -34.1%
- CC50 ([13]; OVCAR-8, read-out: LC50): 37.1 µM
- IC (TGI) ([13]; OVCAR-8, read-out: TGI): 8.77 µM
- GI50 ([14]; TK-10): 3.04 µM
- activity at 10 µM ([14]; TK-10, 48 h, read-out: Growth Percentage): 37.8%
- CC50 ([14]; TK-10, read-out: LC50): 35.2 µM
- IC (TGI) ([14]; TK-10, read-out: TGI): 11.8 µM
- GI50 ([15]; SNB-19): 3.47 µM
- activity at 10 µM ([15]; SNB-19, 48 h, read-out: Growth Percentage): 32.7%
- CC50 ([15]; SNB-19, read-out: LC50): 37.7 µM
- IC (TGI) ([15]; SNB-19, read-out: TGI): 13.4 µM
- GI50 ([16]; 786-0): 3.33 µM
- activity at 10 µM ([16]; 786-0, 48 h, read-out: Growth Percentage): 25%
- CC50 ([16]; 786-0, read-out: LC50): 41.8 µM
- IC (TGI) ([16]; 786-0, read-out: TGI): 13.3 µM
- GI50 ([17]; MDA-MB-435): 4.12 µM
- activity at 10 µM ([17]; MDA-MB-435, 48 h, read-out: Growth Percentage): 8.26%
- CC50 ([17]; MDA-MB-435, read-out: LC50): 45.1 µM
- IC (TGI) ([17]; MDA-MB-435, read-out: TGI): 16.7 µM
- GI50 ([18]; U-251): 2.87 µM
- activity at 10 µM ([18]; U-251, 48 h, read-out: Growth Percentage): 15.5%
- CC50 ([18]; U-251, read-out: LC50): 39.7 µM
- IC (TGI) ([18]; U-251, read-out: TGI): 11.7 µM
- GI50 ([19]; SW-620): 2.82 µM
- activity at 10 µM ([19]; SW-620, 48 h, read-out: Growth Percentage): 5.7%
- CC50 ([19]; SW-620, read-out: LC50): 41.6 µM
- IC (TGI) ([19]; SW-620, read-out: TGI): 11.7 µM
- GI50 [20]: 7.67 µM
- activity at 10 µM [20, 26]: 55%
- CC50 ([20]; read-out: LC50): 45.4 µM
- IC (TGI) ([20]; read-out: TGI): 20.3 µM
- GI50 ([21]; Homo sapiens, HCC 2998): 2.72 µM
- activity at 10 µM ([21]; Homo sapiens, HCC 2998, 48 h, read-out: Growth Percentage): 3.23%
- CC50 ([21]; Homo sapiens, HCC 2998, read-out: LC50): 31.6 µM
- TGI ([21]; five-dose, Colon Cancer HCC-2998): 9.62 µM
- GI50 ([22]; NCI-H460): 14.3 µM
- activity at 10 µM ([22]; NCI-H460, 48 h, read-out: Growth Percentage): 39.1%
- CC50 ([22]; NCI-H460, read-out: LC50): 80.9 µM
- IC (TGI) ([22]; NCI-H460, read-out: TGI): 34.1 µM
- GI50 ([23]; M14): 9.02 µM
- activity at 10 µM ([23]; M14, 48 h, read-out: Growth Percentage): 74.5%
- IC (TGI) ([23]; M14, read-out: TGI): 22.9 µM
- GI50 ([24]; NCI-H522): 3.37 µM
- activity at 10 µM ([24]; NCI-H522, 48 h, read-out: Growth Percentage): 21.1%
- CC50 ([24]; NCI-H522, read-out: LC50): 41.2 µM
- IC (TGI) ([24]; NCI-H522, read-out: TGI): 14.3 µM
- GI50 ([25]; A498): 13.5 µM
- activity at 10 µM ([25]; A498, 48 h, read-out: Growth Percentage, A498, dose of 10 μM): 109%
- CC50 ([25]; A498, read-out: LC50): 51.8 µM
- IC (TGI) ([25]; A498, read-out: TGI): 26.5 µM
